Where a name gives a salt, the structure may show the parent alone.
Target: T1, GPR119 G protein-coupled receptor (Homo sapiens, UniProt Q8TDV5)
T1 construct: expressed in transfected cells; host or cells: Flp-In-T-REx 293 cells, tetracycline induced
T1 sequence (Q8TDV5 1-335): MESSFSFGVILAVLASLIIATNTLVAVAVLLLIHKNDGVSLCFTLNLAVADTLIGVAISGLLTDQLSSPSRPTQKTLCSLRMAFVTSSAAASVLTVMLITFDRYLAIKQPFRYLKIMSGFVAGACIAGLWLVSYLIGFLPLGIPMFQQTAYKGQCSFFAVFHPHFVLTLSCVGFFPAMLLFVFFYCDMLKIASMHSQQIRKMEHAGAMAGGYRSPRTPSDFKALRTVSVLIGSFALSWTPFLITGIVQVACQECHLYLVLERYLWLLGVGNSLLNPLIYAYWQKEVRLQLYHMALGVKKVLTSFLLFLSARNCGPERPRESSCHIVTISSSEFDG
Test: Human Tet-Inducible cAMP Assay (hEC50, Table 1)
Type: cell-based
Set-up: IA: scale not given here
Conditions: for IA: IA not defined
Description: Human Tet-Inducible cAMP Assay
Cell lines using the Flp-In-T-REx 293 tetracycline inducible gene expression system are cultured in culture medium comprising the following components: DMEM#11965, 10% FBS, 2 mM L-glutamine, 200 ug/ml Hygromycin B, and 15 ug/ml blasticidin.
For cAMP assays, cells are plated on 96 well plates (e.g., BD Falcon: REF 353948, black side, clear bottom, TC surface) at a density of about 4.5×10^4 cells per well in growth medium containing 1.0 ug/ml tetracycline (1.0 mg/ml stock). The cells are then incubated for 48 hours at 37° C.
Following the incubation, the growth medium is removed from the wells and the wells rinsed (once) with the assay buffer included in the Hit Hunter cAMP kit (100 μl/well). Following the wash, 20 μl of assay buffer is added to each well, followed by addition of 10 μl of a 3× concentration compound working solution. The solution is then mixed. The final concentration range of compound is from about 10^−5M to about 10^−11M. The reagents are then incubated at 37° C. at 5% CO2 for 1 hour.
The manufacturer's protocol may be followed for cAMP determination. The Hit Hunter cAMP kit protocol is outlined for the HIT-T15 cAMP assays described above.

SMILES | EC50 [nM] | IA
CC(C)(C)OC(=O)N1CCC(N2CCOc3c(Nc4ccc(S(C)(=O)=O)cc4Cl)ncnc32)CC1 [Example 7, tert-Butyl 4-(4-(2-chloro-4-(methylsulfonyl)phenylamino)-6H-pyrimido[5,4-b][1,4]oxazin-8(7H)-yl)piperidine-1-carboxylate] | 2.78 | 0.81
CC(C)OC(=O)N1CCC(N2C(=O)CCc3c(Nc4ccc(S(C)(=O)=O)cc4F)ncnc32)CC1 [Example 118, Isopropyl 4-(4-(2-fluoro-4-(methylsulfonyl)phenylamino)-7-oxo-6,7-dihydropyrido[2,3-d]pyrimidin-8 (5H)-yl)piperidine-1-carboxylate] | 179 | 0.63
CC(C)OC(=O)N1CCC(N2C(=O)COc3c(Nc4cccnc4Cl)ncnc32)CC1 [Example 127, Isopropyl 4-(4-(2-chloropyridin-3-ylamino)-7-oxo-6H-pyrimido[5,4-b][1,4]oxazin-8(7H)-yl)piperidine-1-carboxylate] | 6180 | 0.52
CC(C)(C)OC(=O)N1CCC(N2CCCOc3c(Nc4c(Cl)cncc4Cl)ncnc32)CC1 [Example 89, tert-Butyl 4-(4-(3,5-dichloropyridin-4-ylamino)-7,8-dihydropyrimido[5,4-b][1,4]oxazepin-9(6H)-yl)piperidine-1-carboxylate] | 10.3 | 0.65
CCC(C)OC(=O)N1CCC(N2CCOc3c(Nc4ccc(S(C)(=O)=O)cc4F)ncnc32)CC1 (racemic) [Example 146, (±)-sec-Butyl 4-(4-(2-fluoro-4-(methylsulfonyl)phenylamino)-6H-pyrimido[5,4-b][1,4]oxazin-8(7 H)-yl)piperidine-1-carboxylate, TFA salt] | 8.52 | 0.88
COc1ccc(Nc2ncnc3c2OCCN3C2CCN(C(=O)OC(C)C)CC2)c(F)c1 [Example 15, iso-Propyl 4-(4-(2-fluoro-4-methoxyphenylamino)-6H-pyrimido[5,4-b][1,4]oxazin-8(7H)-yl)piperidine-1-carboxylate] | 188 | 0.48
CC(C)(C)OC(=O)N1CCC(N2CCCOc3c(Nc4ccncc4)ncnc32)CC1 [Example 100, tert-Butyl 4-(4-(pyridin-4-ylamino)-7,8-dihydropyrimido[5,4-b][1,4]oxazepin-9(6H)-yl)piperidine-1-carboxylate] | 3450 | 0.53
CC(C)OC(=O)N1CCC(N2CCOc3c(Nc4ccc5c(c4)OCO5)ncnc32)CC1 [Example 132, Isopropyl 4-(4-(benzo[d][1,3]dioxol-5-ylamino)-6H-pyrimido[5,4-b][1,4]oxazin-8(7H)-yl)piperidine-1-carboxylate] | 3400 | 0.37
COC(=O)c1ccc(Nc2ncnc3c2OCCN3C2CCN(C(=O)OC(C)(C)C)CC2)c(Cl)c1 [Example 45, tert-Butyl 4-(4-(2-chloro-4-(methoxycarbonyl)phenylamino)-6H-pyrimido[5,4-b][1,4]oxazin-8(7H)-yl)piperidine-1-carboxylate] | 158 | 0.63
CS(=O)(=O)c1ccc(Nc2ncnc3c2OCCN3C2CCN(C(=O)OCC(F)(F)F)CC2)c(F)c1 [Example 145, 2,2,2-Trifluoroethyl 4-(4-(2-fluoro-4-(methylsulfonyl)phenylamino)-6H-pyrimido[5,4-b][1,4]oxazin-8(7H)-yl)piperidine-1-carboxylate, TFA salt] | 11.4 | 0.87
CC(C)OC(=O)N1CCC(N2CCOc3c(Nc4ccncc4Cl)ncnc32)CC1 [Example 120, Isopropyl 4-(4-(3-chloropyridin-4-ylamino)-6H-pyrimido[5,4-b][1,4]oxazin-8(7H)-yl)piperidine-1-carboxylate] | 181 | 0.45
Cc1ccc(Nc2ncnc3c2OCC(=O)N3C2CCN(C(=O)OC(C)(C)C)CC2)cn1 [Example 69, tert-Butyl 4-(4-(6-methylpyridin-3-ylamino)-7-oxo-6H-pyrimido[5,4-b][1,4]oxazin-8(7H)-yl)piperidine-1-carboxylate] | 4310 | 0.35
CS(=O)(=O)c1ccc(Nc2ncnc3c2OCCN3C2CCN(c3nc4ccccc4s3)CC2)c(F)c1 [Example 18, 8-(1-(Benzo[d]thiazol-2-yl)piperidin-4-yl)-N-(2-fluoro-4-(methylsulfonyl)phenyl)-7,8-dihydro-6H-pyrimido[5,4-b][1,4]oxazin-4-amine] | 198 | 0.46
Cc1ncccc1Oc1ncnc2c1OCCN2C1CCN(C(=O)OC(C)C)CC1 [Example 25, iso-Propyl 4-(4-(2-methylpyridin-3-yloxy)-6H-pyrimido[5,4-b][1,4]oxazin-8(7H)-yl)piperidine-1-carboxylate] | 4520 | 0.27
CC(C)(C)OC(=O)N1CCC(N2CCOc3c(Nc4c(Cl)cncc4Cl)ncnc32)CC1 [Example 55, tert-Butyl 4-(4-(3,5-dichloropyridin-4-ylamino)-6H-pyrimido[5,4-b][1,4]oxazin-8(7H)-yl)piperidine-1-carboxylate] | 11.1 | 0.72
CC(C)(C)OC(=O)N1CCC(N2CCOc3c(Nc4ccc(C(N)=O)cc4Cl)ncnc32)CC1 [Example 47, tert-Butyl 4-(4-(4-carbamoyl-2-chlorophenylamino)-6H-pyrimido[5,4-b][1,4]oxazin-8(7H)-yl)piperidine-1-carboxylate] | 163 | 0.78
CC(C)OC(=O)N1CCC(N2CCOc3c(Nc4ccc(C(N)=O)cc4Cl)ncnc32)CC1 [Example 49, iso-Propyl 4-(4-(4-carbamoyl-2-chlorophenylamino)-6H-pyrimido[5,4-b][1,4]oxazin-8(7H)-yl)piperidine-1-carboxylate] | 196 | 0.67
CC(C)(C)OC(=O)N1CCC(N2CCOc3c(Nc4ccc(-n5ccnc5)cc4Cl)ncnc32)CC1 [Example 154, tert-Butyl 4-(4-(2-chloro-4-(1H-imidazol-1-yl)phenylamino)-6H-pyrimido[5,4-b][1,4]oxazin-8(7H)-yl)piperidine-1-carboxylate] | 12.9 | 0.65
COc1ccc(Nc2ncnc3c2OCCN3C2CCN(C(=O)OC(C)C)CC2)cc1 [Example 128, Isopropyl 4-(4-(4-methoxyphenylamino)-6H-pyrimido[5,4-b][1,4]oxazin-8(7H)-yl)piperidine-1-carboxylate] | 3590 | 0.7
CC(C)(OC(=O)N1CCC(N2CCOc3c(Nc4ccc(S(C)(=O)=O)cc4F)ncnc32)CC1)C(F)(F)F [Example 143] | 9.74 | 0.41
CC(C)(C)OC(=O)N1CCC(N2C(=O)COc3c(Nc4ccc(S(C)(=O)=O)cc4F)ncnc32)CC1 [Example 26, tert-Butyl 4-(4-(2-fluoro-4-(methylsulfonyl)phenylamino)-7-oxo-6H-pyrimido[5,4-b][1,4]oxazin-8(7H)-yl)piperidine-1-carboxylate] | 8.06 | 0.51
Cc1ccc(Nc2ncnc3c2OCC(=O)N3C2CCN(C(=O)OC(C)C)CC2)cn1 [Example 72, iso-Propyl 4-(4-(6-methylpyridin-3-ylamino)-7-oxo-6H-pyrimido[5,4-b][1,4]oxazin-8(7H)-yl)piperidine-1-carboxylate] | 8580 | 0.34
Cc1ncccc1Nc1cccc2c1OCCN2C1CCN(C(=O)OC(C)(C)C)CC1 [Example 76, tert-Butyl 4-(8-(2-methylpyridin-3-ylamino)-2H-benzo[b][1,4]oxazin-4 (3H)-yl)piperidine-1-carboxylate] | 3390 | 0.38
Cc1cc(C#N)ccc1Nc1ncnc2c1OCCN2C1CCN(C(=O)OC(C)C)CC1 [Example 134, Isopropyl 4-(4-(4-cyano-2-methylphenylamino)-6H-pyrimido[5,4-b][1,4]oxazin-8(7H)-yl)piperidine-1-carboxylate] | 163 | 0.59

— patent US8513265B2, “[6,6] and [6,7]-bicyclic GPR119 G protein-coupled receptor agonists” (Bristol-Myers Squibb Company, priority 2011, dated 2013)
